Assay results published in article PMC9071858, “Comparative Pharmacokinetics of Seven Major Compounds in Normal and Atherosclerosis Mice after Oral Administration of Simiao Yong'an Decoction” (Evidence-based Complementary and Alternative Medicine : eCAM, 2022).

Key:
[1] = Pharmacokinetic study in atherosclerosis (AS) model ApoE−/− mice after oral administration of SMYAD; assay type: in vivo, mouse
Experimental: (§1) Male C57BL/6J mice and ApoE^−/− mice on a C57BL/6 background (7 weeks old, 18–22 g) were purchased from Beijing Vital River Laboratory Animal Technology Co., Ltd. (Beijing, China, Certificate No.: SCXK (Jing) 2016-0006). All the mice were kept in an SPF animal house (Dongzhimen Hospital Affiliated to Beijing University of Chinese Medicine, Certificate No.: SYXK (Jing) 2015-0001) with food and water freely available, 12 h light/dark, and environmental conditions of 22°C–24°C, 50% relative humidity. All protocols of animal experiments were performed in accordance with the National Guidelines for Laboratory Animal Welfare and were approved by the Animal Ethics Committee of Beijing University of Chinese Medicine (NO. BUCM-4-2015071701-3001). High-fat feeding (containing 15% fat and 0.25% cholesterol) was provided by Beijing HFK bioscience CO., LTD. (Beijing, China, Certificate No.: SCXK (Jing) 2014-0018).
The AS model was established by a high-fat diet and perivascular carotid collar placement (PCCP) surgery in the ApoE^−/− mice. After a 7-day adaptive feeding, the mice were given a high-fat diet for 2 weeks; before anesthesia, all ApoE^−/− mice were fasted for 12 hours. During the surgery, the right common carotid artery was exposed, and a silicone cannula (length: 2.5 mm, inner diameter: 0.3 mm) was fixed around the carotid artery (external diameter: about 0.5 mm). Penicillin was injected intraperitoneally for 3 days after surgery to prevent infection. High-fat diet continued for 8 weeks after surgery to establish AS model. Biochemical assays and hematoxylin and eosin (HE) staining were used to evaluate whether AS model was successfully established.
(§2) After successful induction of AS model, SMYAD was administered to NC and AS mice by intragastric gavage at the crude drug dose of 35 g/kg/d for seven days. Blood samples were collected from each mouse in heparinized tubes via the postorbital venous plexus veins at 0, 0.25, 0.5, 1, 2, 4, 6, 8, 10, 12, 18, and 24 h after seven days of drug administration. Then blood samples were immediately centrifuged at 3500 rpm at 4°C for 10 min and the plasma was stored at −80°C until use.
(§3) Each plasma sample (100 μL) was mixed with a threefold volume of methanol and 25 μL IS in a 1.5 mL EP tube. Then the mixture was vortexed for 100 seconds and centrifuged at 12,000 rpm for 10 min at 4°C. The supernatant was transferred to another EP tube and evaporated to dryness under a nitrogen vacuum. The residue was reconstituted with 100 μL of 50% methanol and centrifuged at 15,000 rpm for 15 min. Then the supernatant was transferred to sample vials for the LC-MS analysis.
(§4) A Vanquish UHPLC™ system (Thermo Fisher Scientific Inc., USA) was used for the analysis. Samples were separated on an Atlantis T3 column (4.6 mm × 150 mm, 3 μm; Waters, USA). The column temperature was 40°C. The mobile phase, at 0.4 mL/min, consisted of water containing 0.1% formic acid (v/v, A) and methanol (B). The quantitative analysis gradient program was as follows: 0-1 min, 0 B; 1–6 min, 0–100% B; 6–12 min, 100% B; 12–12.1 min, 100%-0 B; 12.1–15 min, 0 B. The injection volume was 5 μL.
The mass spectrometer Q Exactive HF-X (Thermo Fisher Scientific Inc., USA) system was connected to the UHPLC system via heated electrospray ionization (HESI) and controlled by Xcalibur 4.2 software (Thermo Fisher) that was used for data collection and analysis. The mass spectrometer was operated in a negative ionization mode. The MS parameters were set as follows: probe heater temperature, 350°C; capillary temperature: 320°C; sheath gas (N2) flow rate: 30 arbs; auxiliary gas (N2) flow rate: 10 arbs; spray voltage: 3.2 kV (negative); S-Lens RF level: 55 V; scan mode: full MS (resolution 12000); scan range: m/z 150–1500. The most abundant ions in the spectra were selected for sensitive quantitation ([M-H]^−of chlorogenic acid, angoroside C, liquiritin, isoliquiritigenin, and IS, [M + COOH]^− of harpagide, swertiamarin, and sweroside). […]

[2] = Pharmacokinetic study in normal control (NC) mice after oral administration of SMYAD; assay type: in vivo, mouse; details: for AUC(0-t) / AUC(0-inf) / Cmax / half-life / Tmax: male, C57BL/6J
Experimental: as §1, §2, §3, §4
The mass spectrometer Q Exactive HF-X (Thermo Fisher Scientific Inc., USA) system was connected to the UHPLC system via heated electrospray ionization (HESI) and controlled by Xcalibur 4.2 software (Thermo Fisher) that was used for data collection and analysis. The mass spectrometer was operated in a negative ionization mode. The MS parameters were set as follows: probe heater temperature, 350°C; capillary temperature: 320°C; sheath gas (N2) flow rate: 30 arbs; auxiliary gas (N2) flow rate: 10 arbs; spray voltage: 3.2 kV (negative); S-Lens RF level: 55 V; scan mode: full MS (resolution 12000); scan range: m/z 150–1500. The most abundant ions in the spectra were selected for sensitive quantitation ([M-H]^−of chlorogenic acid, angoroside C, liquiritin, isoliquiritigenin, and IS, [M + COOH]^− of harpagide, swertiamarin, and sweroside).
The pharmacokinetic parameters, including maximum plasma concentration (Cmax), time corresponding to Cmax (Tmax), terminal elimination half-life (T1/2), area under plasma concentration-time curve (AUC0–t) and area under the plasma concentration-time curve from 0 to infinity time (AUC0–∞), apparent volume of distribution (Vz/F) and clearance (CLz/F), were calculated using the noncompartment model in DAS 2.0 software package (Shanghai, China). GraphPad prism 6.02 (GraphPad Software, USA) was used in the statistical analysis. All values are expressed as mean ± standard error. For the pharmacokinetic parameter values of the NC and AS groups, Student's t-test was employed for data comparisons. P values <0.05 were considered statistically significant.

[3] = AS mice, plasma, SMYAD intragastric 35 g/kg/d for seven days, mean ± SD, n = 5
[4] = male, ApoE−/− on a C57BL/6 background, mouse, po, 35 g/kg/day, AS mice, plasma, SMYAD intragastric 35 g/kg/d for seven days, mean ± SD, n = 5, read-out: AUC0–t
[5] = male, ApoE−/− on a C57BL/6 background, mouse, po, 35 g/kg/day, AS mice, plasma, SMYAD intragastric 35 g/kg/d for seven days, mean ± SD, n = 5, read-out: AUC0–∞
[6] = male, ApoE−/− on a C57BL/6 background, mouse, po, 35 g/kg/day, AS mice, plasma, SMYAD intragastric 35 g/kg/d for seven days, mean ± SD, n = 5, read-out: C max
[7] = male, ApoE−/− on a C57BL/6 background, mouse, po, 35 g/kg/day, AS mice, plasma, SMYAD intragastric 35 g/kg/d for seven days, mean ± SD, n = 5, read-out: t 1/2 (converted)
[8] = male, ApoE−/− on a C57BL/6 background, mouse, po, 35 g/kg/day, AS mice, plasma, SMYAD intragastric 35 g/kg/d for seven days, mean ± SD, n = 5, read-out: t max
[9] = NC mice, plasma, SMYAD intragastric 35 g/kg/d for seven days, mean ± SD, n = 5
[10] = mouse, po, 35 g/kg/day, NC mice, plasma, SMYAD intragastric 35 g/kg/d for seven days, mean ± SD, n = 5, read-out: AUC0–t
[11] = mouse, po, 35 g/kg/day, NC mice, plasma, SMYAD intragastric 35 g/kg/d for seven days, mean ± SD, n = 5, read-out: AUC0–∞
[12] = mouse, po, 35 g/kg/day, NC mice, plasma, SMYAD intragastric 35 g/kg/d for seven days, mean ± SD, n = 5, read-out: C max
[13] = mouse, po, 35 g/kg/day, NC mice, plasma, SMYAD intragastric 35 g/kg/d for seven days, mean ± SD, n = 5, read-out: t 1/2 (converted)
[14] = mouse, po, 35 g/kg/day, NC mice, plasma, SMYAD intragastric 35 g/kg/d for seven days, mean ± SD, n = 5, read-out: t max
[15] = male, ApoE−/− on a C57BL/6 background, mouse, in vivo, po, 35 g/kg/day
[16] = mouse, in vivo, po, 35 g/kg/day

CLz/F [1, 3]	Vz/F [1, 3]	AUC(0-t) [1, 4]	AUC(0-inf) [1, 5]	Cmax [1, 6]	half-life [1, 7]	Tmax [1, 8]	CLz/F [2, 9]	Vz/F [2, 9]	AUC(0-t) [2, 10]	AUC(0-inf) [2, 11]	Cmax [2, 12]	half-life [2, 13]	Tmax [2, 14]	SMILES	AUC(0-inf) [1, 15]	AUC(0-t) [1, 15]	Cmax [1, 15]	Tmax [1, 15]	half-life [1, 15]	Vz/F [1, 16]	further results
13.49 ± 1.81^∗∗ L/h/mg	302.49 ± 211.89 L/mg	1560 ± 476 ng·h/mL	2640 ± 323 ng·h/mL	1130 ± 970 ng/mL	21.6 ± 9.16 h	0.25 h	506200 ± 126000 µL/min/mg	247.01 ± 150.71 L/mg	1110 ± 419 ng·h/mL	1260 ± 425 ng·h/mL	267 ± 72.4 ng/mL	4.51 ± 1.1 h	1.13 ± 0.88 h	O=C(/C=C/c1ccc(O)c(O)c1)O[C@@H]1C[C@](O)(C(=O)O)C[C@@H](O)[C@H]1O [Chlorogenic acid, chlorogenic acid]	–	–	–	–	–	–	CLz/F ([1]; AS mice, plasma, SMYAD intragastric 35 g/kg/d for seven days, mean ± SD, n = 5, listed as chlorogenic acid): 13.49 ± 1.81 L/h/mg
62.16 ± 23.35^∗ L/h/mg	658.87 ± 555.51 L/mg	502 ± 166 ng·h/mL	654 ± 251 ng·h/mL	135 ± 102 ng/mL	6.01 ± 2.32 h	0.95 ± 0.6 h	558500 ± 73500 µL/min/mg	198.37 ± 58.53 L/mg	1040 ± 144 ng·h/mL	1060 ± 144 ng·h/mL	175 ± 49 ng/mL	6.65 ± 1.31 h	1.9 ± 2.13 h	O=C(/C=C/c1ccc(O)cc1)c1ccc(O)cc1O [Isoliquiritigenin, isoliquiritigenin]	–	–	–	–	–	–	CLz/F ([1]; AS mice, plasma, SMYAD intragastric 35 g/kg/d for seven days, mean ± SD, n = 5, listed as isoliquiritigenin): 62.16 ± 23.35 L/h/mg
–	–	–	–	–	–	–	–	–	–	–	–	–	–	O=C1C[C@@H](c2ccc(O[C@@H]3O[C@H](CO)[C@@H](O)[C@H](O)[C@H]3O)cc2)Oc2cc(O)ccc21 [Liquiritin, liquiritin]	482 ± 137 ng·h/mL	408 ± 115 ng·h/mL	67.6 ± 33.6 ng/mL	0.75 ± 0.69 h	13.5 ± 3.57 h	887.57 ± 397.82 L/mg	CLz/F ([1]; male, ApoE−/− on a C57BL/6 background, mouse, in vivo): 67.62 ± 33.62 L/h/mg; AUC(0-inf) [2, 16]: 760 ± 334 ng·h/mL; AUC(0-t) [2, 16]: 607 ± 229 ng·h/mL; Cmax [2, 16]: 132 ± 57.1 ng/mL; Tmax [2, 16]: 0.75 ± 0.63 h; half-life [2, 16]: 17 ± 3.43 h; CLz/F [2, 16]: 979000 ± 515700 µL/min/mg; Vz/F [2, 16]: 565.81 ± 116.60 L/mg
–	–	–	–	–	–	–	–	–	–	–	–	–	–	C=C[C@H]1[C@H](O[C@@H]2O[C@H](CO)[C@@H](O)[C@H](O)[C@H]2O)OC=C2C(=O)OCC[C@H]21 [Sweroside, sweroside]	8930 ± 2120 ng·h/mL	7500 ± 1800 ng·h/mL	1590 ± 497 ng/mL	0.9 ± 0.64 h	6.56 ± 2.75 h	29.99 ± 14.26 L/mg	CLz/F [1, 16]: 4.29 ± 1.55 L/h/mg; AUC(0-inf) [2, 16]: 7080 ± 390 ng·h/mL; AUC(0-t) [2, 16]: 6980 ± 382 ng·h/mL; Cmax [2, 16]: 1790 ± 369 ng/mL; Tmax [2, 16]: 0.4 ± 0.3 h; half-life [2, 16]: 3.81 ± 0.56 h; CLz/F [2, 16]: 82700 ± 4670 µL/min/mg; Vz/F [2, 16]: 16.99 ± 3.78 L/mg
